Here are results for 35 compounds from patent US12325681B2, “Inhibitors of nitric oxide synthases (NOS), pharmaceutical products thereof, and methods thereof” (Gacter Inc., priority 2022, dated 2025).

pIC50: −log10 of the molar value. Structures can show the parent of a compound that is named as a salt.

Assay [1] concerns the target T1, iNOS (Homo sapiens, UniProt P35228). In words: abcam NOS Inhibitor Screening Kit, IC50 (fluorescence). In kind it is biochemical. More on the design: IC50; IC50. The note with it: abcam NOS Inhibitor Screening Kit. On the procedure:
(§1) The IC50 of some compounds of the invention was determined using the abcam NOS Inhibitor Screening Kit. The procedure includes the following steps: (1) Dissolved a test compound to 10 mM in DMSO; (2) Diluted the test compound to 1 mM in NOS Assay Buffer; (3) Diluted 1 mM of the test compound stocks to 200 μM, 50 μM, 12.5 μM, 3.125 μM, 0.781 μM, and 0.195 μM in NOS Assay Buffer; (4) Diluted 1 mM DPI Control to 50.0 μM, 12.5 μM, 3.125 μM, 0.781 μM, 0.195 μM, and 0.0488 μM in NOS Assay Buffer; (5) Diluted NOS enzyme with 400 μL of NOS Assay Buffer; (6) Combined Diluted NOS Enzyme with 1.6 mL of NOS Assay buffer then transferred 20 μL of enzyme solution to all wells of 96-well Fluorescence plate except background wells. Added 20 μL of NOS Assay buffer to background wells. (7) Transferred 10 uL of each test compound dilution to the enzyme buffer mix according to the plate map (see addendum for plate map and raw data values). (8) Incubated 15 minutes at room temperature. (9) Added 11 μL of NOS reaction mix (according to manufacturer's protocol) to each well, mixed, and incubated at 37° C. for 1 hour. (10) Added 110 μL of NOS Assay Buffer to each well followed by 5 μL of Enhancer to each well, mixed, and incubated 10 minutes at room temperature; (11) Added 10 μL of Probe to each well, mixed, and incubated 10 minutes at room temperature; and (12) Added 5 μL of NaOH to each well, mixed, and incubated 10 minutes at room temperature. Measure Fluorescence at 360 nm excitation/450 nm emission.

The target in assay [2] is T1, iNOS. Described as above. Format: biochemical. Details: Fold (GT-xxxx)/AZ 6b. The settings on record: ratio of IC50 to AZ 6b IC50 (0.0488 μM). On the procedure:
as §1

In general, pIC50 refers to the negative decadic logarithm of the IC50, by convention in mol/L. Higher therefore signals a low IC50. On iNOS [1] (Table C-1), `N#Cc1ccc(Cl)cc1CN(CCNCCO)c1ccccc1` [GT-7010, 4-chloro-2-(((2-((2-hydroxyethyl)amino)ethyl)(phenyl)amino)methyl) benzonitrile] had a pIC50 of 5.04.

Regarding `Cc1ccc(C#N)c(O[C@H](CCNC[C@@H](O)CO)c2ccccc2)n1` [GT-5025, 2-((R)-3-(((R)-2,3-dihydroxypropyl)amino)-1-phenylpropoxy)-6-methylnicotinonitrile], the pIC50 against iNOS [1] (Table C-1) is 5.45.

For the compound `Cc1ccc(C#N)c(O[C@H](CCNCCO)c2ccccc2)n1` [GT-5014, (R)-2-(3-((2-hydroxyethyl)amino)-1-phenylpropoxy)-6-methylnicotinonitrile], the negative logarithm of the IC50 (pIC50) against iNOS [1] (Table C-1) was 5.66.

For the compound `N#Cc1ccc(Cl)cc1CN(CCNC[C@@H](O)CO)c1ccccc1` [GT-7016, (R)-4-chloro-2-(((2-((2,3-dihydroxypropyl)amino)ethyl)(phenyl)amino)methyl)benzonitrile], at iNOS [1] (Table C-1), the pIC50 was 5.07.

`Cc1ccc(C#N)c(O[C@H](CCNC[C@H](O)CO)c2ccccc2)n1` [GT-5024, 2-((R)-3-(((S)-2,3-dihydroxypropyl)amino)-1-phenylpropoxy)-6-methylnicotinonitrile] gave a pIC50 at iNOS [1] (Table C-1) of 5.63.

As to `N#Cc1ccc(Cl)cc1C(=O)N(CCNCCCO)c1ccccc1` [GT-7011, 5-chloro-2-cyano-N-(2-((3-hydroxypropyl)amino)ethyl)-N-phenylbenzamide], the pIC50 on iNOS [1] (Table C-1) and on iNOS [1] (Table C-2) was 6.54 in each case. Further, the “Fold (GT-xxxx)/AZ 6b” value on iNOS [2] is 5.94.

With `CNCC[C@@H](Oc1nc(C)ccc1C#N)c1ccccc1` [GT-5002, (R)-6-methyl-2-(3-(methylamino)-1-phenylpropoxy)nicotinonitrile], the pIC50 against iNOS [1] (Table C-1) was 5.87.

Take `CNCC[C@@H](Oc1cc(Cl)cc2[nH]cnc12)c1ccccc1` [GT-6058, (R)-3-((6-chloro-1H-benzo[d]imidazol-4-yl)oxy)-N-methyl-3-phenylpropan-1-amine]: the negative logarithm of the IC50 (pIC50) at iNOS [1] (Table C-1) and against iNOS [1] (Table C-2) was 6.34 each time. In addition, the “Fold (GT-xxxx)/AZ 6b” value on iNOS [2] came out at 9.36.

Consider `Cc1ccc(C#N)c(O[C@H](CCNCCc2c[nH]cn2)c2ccccc2)n1` [GT-5023, (R)-2-(3-((2-(1H-imidazol-4-yl)ethyl)amino)-1-phenylpropoxy)-6-methylnicotinonitrile], for which the negative logarithm of the IC50 (pIC50) on iNOS [1] (Table C-1) is 5.27.

On to `N#Cc1ccc(Cl)cc1C(=O)N(CCN)c1ccccc1Cl` [GT-7002, N-(2-aminoethyl)-5-chloro-N-(2-chlorophenyl)-2-cyanobenzamide], for which the pIC50 against iNOS [1] (Table C-1) and against iNOS [1] (Table C-2) was 6.95 throughout. Also, at iNOS [2], the “Fold (GT-xxxx)/AZ 6b” value was determined as 2.30.

Consider `Cc1ccc(C#N)c(O[C@H](CCN2CC[C@H](O)C2)c2ccccc2)n1` [GT-5016, 2-((R)-3-((S)-3-hydroxypyrrolidin-1-yl)-1-phenylpropoxy)-6-methyl nicotinonitrile], for which the pIC50 against iNOS [1] (Table C-1) was 5.39.

`NCCN(Cc1cc(Cl)ccc1Br)c1ccccc1` [GT-7006, N1-(2-bromo-5-chlorobenzyl)-N1-phenylethane-1,2-diamine] showed a pIC50 at iNOS [1] (Table C-1) of 3.80.

`CNCC[C@@H](Oc1nc(C(F)(F)F)ccc1C#N)c1ccccc1` [GT-5013, (R)-2-(3-(methylamino)-1-phenylpropoxy)-6-(trifluoromethyl) nicotinonitrile] showed a negative logarithm of the IC50 (pIC50) against iNOS [1] (Table C-1) of 4.63.

With `Cc1ccc(C#N)c(O[C@H](CCNCCCO)c2ccccc2)n1` [GT-5015], the pIC50 on iNOS [1] (Table C-1) was 5.76.

`CNCC[C@@H](Oc1nc(C)ccc1Br)c1ccccc1` [GT-5012, (R)-3-((3-bromo-6-methylpyridin-2-yl)oxy)-N-methyl-3-phenylpropan-1-amine] gave a negative-log IC50 (pIC50) against iNOS [1] (Table C-1) of 1.90.

`Cc1ccc(C#N)c(O[C@H](CCNCC2CC2)c2ccccc2)n1` [GT-5031, (R)-2-(3-((cyclopropylmethyl)amino)-1-phenylpropoxy)-6-methylnicotinonitrile] had a pIC50 on iNOS [1] (Table C-1) of 5.34.

On to `O=C1c2ccccc2C(=O)N1CC[C@@H](Oc1cc(Cl)cc2[nH]ncc12)c1ccccc1` [GT-6066, (R)-2-(3-((6-chloro-1H-indazol-4-yl)oxy)-3-phenylpropyl)isoindoline-1,3-dione], for which the pIC50 against iNOS [1] (Table C-1) and against iNOS [1] (Table C-2) was 6.57 in each case. The “Fold (GT-xxxx)/AZ 6b” value at iNOS [2] is listed as 5.53.

As for `Cc1ccc(C#N)c(O[C@H](CCNCCN(C)C)c2ccccc2)n1` [GT-5019, (R)-2-(3-((2-(dimethylamino)ethyl)amino)-1-phenylpropoxy)-6-methyl nicotinonitrile], the pIC50 against iNOS [1] (Table C-1) is 5.02.

Take `Cc1ccc(C#N)c(O[C@H](CCNCCN2CCOCC2)c2ccccc2)n1` [GT-5020, (R)-6-methyl-2-(3-((2-morpholinoethyl)amino)-1-phenylpropoxy)nicotinonitrile]: on iNOS [1] (Table C-1), the pIC50 was 5.14.

Consider `N#Cc1ccc(Cl)cc1OC(CCN)c1ccnc(N)c1` (stereo not shown) [GT-6064, 2-(3-amino-1-(2-aminopyridin-4-yl)propoxy)-4-chlorobenzonitrile], for which the pIC50 against iNOS [1] (Table C-1) and at iNOS [1] (Table C-2) was 7.55 throughout. In addition, on iNOS [2], the “Fold (GT-xxxx)/AZ 6b” value is recorded as 0.58.

Regarding `Cc1ccc(C#N)c(O[C@H](CCN)c2ccccc2)n1` [GT-5001, (R)-2-(3-amino-1-phenylpropoxy)-6-methylnicotinonitrile], the negative-log IC50 (pIC50) against iNOS [1] (Table C-1) is 5.80.

With `Cl.N#Cc1ccc(Cl)cc1CN(CCN)c1ccccc1` [GT-7003, 2-(((2-aminoethyl)(phenyl)amino)methyl)-4-chlorobenzonitrile hydrochloride], the negative-log IC50 (pIC50) against iNOS [1] (Table C-1) and on iNOS [1] (Table C-2) was 7.19 each time. Further, at iNOS [2], the “Fold (GT-xxxx)/AZ 6b” value came to 1.31.

In the case of `N#Cc1ccc(Cl)cc1CN(CCNC1CCC(O)CC1)c1ccccc1` (single isomer, unassigned) [GT-7023, 4-chloro-2-(((2-((4-hydroxycyclohexyl)amino)ethyl)(phenyl)amino)methyl) benzonitrile], the negative logarithm of the IC50 (pIC50) against iNOS [1] (Table C-1) is 4.98.

Take `Cc1ccc(C#N)c(O[C@H](CCN2CC[C@@H](O)C2)c2ccccc2)n1` [GT-5017, 2-((R)-3-((R)-3-hydroxypyrrolidin-1-yl)-1-phenylpropoxy)-6-methyl nicotinonitrile]: the pIC50 on iNOS [1] (Table C-1) is 5.17.

In turn, `N#Cc1ccc(Cl)cc1C(=O)N(CCNC(CO)CO)c1ccccc1` [GT-7017, 5-chloro-2-cyano-N-(2-((1,3-dihydroxypropan-2-yl)amino)ethyl)-N-phenylbenzamide] showed a pIC50 against iNOS [1] (Table C-1) of 5.44.

With `NCCN(Cc1cc(Cl)ccc1Br)c1ccccc1Cl` [GT-7008, N1-(2-bromo-5-chlorobenzyl)-N1-(2-chlorophenyl)ethane-1,2-diamine hydrochloride], the negative-log IC50 (pIC50) at iNOS [1] (Table C-1) is 5.25.

With `N#Cc1ccc(Cl)cc1CN(CCNC1CCC(O)CC1)c1ccccc1` (single isomer, unassigned) [GT-7024, 4-chloro-2-(((2-((4-hydroxycyclohexyl)amino)ethyl)(phenyl)amino)methyl) benzonitrile], the negative logarithm of the IC50 (pIC50) against iNOS [1] (Table C-1) was 4.84.

Take `NCCN(C(=O)c1cc(Cl)ccc1Br)c1ccccc1Cl` [GT-7007, N-(2-aminoethyl)-2-bromo-5-chloro-N-(2-chlorophenyl) benzamide]: the negative-log IC50 (pIC50) against iNOS [1] (Table C-1) and against iNOS [1] (Table C-2) was 7.02 each time. Besides, the “Fold (GT-xxxx)/AZ 6b” value on iNOS [2] amounted to 1.96.

The compound `Cc1ccc(C#N)c(O[C@H](CCNC(C)(C)C)c2ccccc2)n1` [GT-5018, (R)-2-(3-(tert-butylamino)-1-phenylpropoxy)-6-methylnicotinonitrile] gave a negative-log IC50 (pIC50) against iNOS [1] (Table C-1) of 5.30.

As for `N#Cc1ccc(Cl)cc1OC(CCN1C(=O)c2ccccc2C1=O)c1ccn2ccnc2c1` (stereo not shown) [GT-6065, 4-chloro-2-(3-(1,3-dioxoisoindolin-2-yl)-1-(imidazo[1,2-a]pyridin-7-yl)propoxy)benzonitrile], the negative-log IC50 (pIC50) at iNOS [1] (Table C-1) and against iNOS [1] (Table C-2) was 7.17 each time. For the same compound, the “Fold (GT-xxxx)/AZ 6b” value at iNOS [2] amounted to 1.39.

Compound `N#Cc1ccc(Cl)cc1CN(CCN)c1ccccc1Cl` [GT-7004, 2-(((2-aminoethyl)(2-chlorophenyl)amino)methyl)-4-chlorobenzonitrile hydrochloride] showed a pIC50 on iNOS [1] (Table C-1) of 5.24.

In the case of `NCC[C@@H](Oc1cc(Cl)cc2[nH]cnc12)c1ccccc1` [GT-6041, (R)-3-((6-chloro-1H-benzo[d]imidazol-4-yl)oxy)-3-phenylpropan-1-amine], the pIC50 against iNOS [1] (Table C-1) and at iNOS [1] (Table C-2) was 6.81 throughout. For the same compound, the “Fold (GT-xxxx)/AZ 6b” value at iNOS [2] is given as 3.20.

In the case of `N#Cc1ccc(Cl)cc1C(=O)N(CCNCCO)c1ccccc1` [GT-7009, 5-chloro-2-cyano-N-(2-((2-hydroxyethyl)amino)ethyl)-N-phenylbenzamide], the negative logarithm of the IC50 (pIC50) at iNOS [1] (Table C-1) and against iNOS [1] (Table C-2) was 6.83 in each case. Moreover, the “Fold (GT-xxxx)/AZ 6b” value at iNOS [2] was found to be 3.03.

`N#Cc1ccc(Cl)cc1CN(CCNC(CO)CO)c1ccccc1` [GT-7018, 4-chloro-2-(((2-((1,3-dihydroxypropan-2-yl)amino)ethyl)(phenyl)amino)methyl)benzonitrile]: at iNOS [1] (Table C-1), the negative logarithm of the IC50 (pIC50) is 4.69.

On iNOS [1] (Table C-1), `N#Cc1ccc(Cl)cc1CN(CCNCC1CC1)c1ccccc1` [GT-7020, 4-chloro-2-(((2-((cyclopropylmethyl)amino)ethyl)(phenyl)amino)methyl) benzonitrile] gave a pIC50 of 4.81.
